Series [1] can be described thus: Toxicity against rabbit erythrocytes assessed as hemolytic index. The note with it: erythrocyte. The series is classed as cell-based, Oryctolagus cuniculus.
The subject of series [2] is Spermatozoa. The series is described as follows: Spermicidal activity in rat spermatozoa assessed as […]. The class given is functional. The note with it: read-out: MEC.

Each structure is given as a SMILES string.

Regarding `COc1ccc2[nH]cc(C3(c4c[nH]c5ccc(OC)cc45)C(=O)Nc4ccccc43)c2c1`, the Activity in series [1] was 3.3 mg/mL. The minimal effective concentration in series [2] stood at 340 µg/mL.

Turning to `Cc1c(C2(c3[nH]c4ccccc4c3C)C(=O)Nc3ccccc32)[nH]c2ccccc12`, the minimal effective concentration in series [2] was determined as 1000 µg/mL.

As to `O=C1Nc2ccccc2C1(c1c[nH]c2ccc(Br)cc12)c1c[nH]c2ccc(Br)cc12`, the minimal effective concentration in series [2] is 3180 µg/mL.

On to `O=C1Nc2ccccc2C1(c1c[nH]c2ccccc12)c1c[nH]c2ccccc12`, for which the minimal effective concentration in series [2] is 2400 µg/mL.

Take `O=C(O)Cc1c(C2(c3[nH]c4ccccc4c3CC(=O)O)C(=O)Nc3ccccc32)[nH]c2ccccc12`: the minimal effective concentration in series [2] was found to be 530 µg/mL.

`Cc1[nH]c2ccccc2c1C1(c2c(C)[nH]c3ccccc23)C(=O)Nc2ccccc21`: the minimal effective concentration in series [2] was found to be 2820 µg/mL.

Turning to `O=C(O)c1[nH]c2ccccc2c1C1(c2c(C(=O)O)[nH]c3ccccc23)C(=O)Nc2ccccc21`, the minimal effective concentration in series [2] came to 1110 µg/mL.

Consider `Cn1cc(C2(c3cn(C)c4ccccc34)C(=O)Nc3ccccc32)c2ccccc21`, for which the minimal effective concentration in series [2] worked out at 2360 µg/mL.

As to `O=C1Nc2ccccc2C1(c1ccc[nH]1)c1ccc[nH]1`, in series [2], the minimal effective concentration came out at 3150 µg/mL.

As to `CCCCCCCCCc1ccc(OCCOCCOCCOCCOCCOCCOCCOCCOCCO)cc1` [NONOXYNOL 9], in series [2], the minimal effective concentration was 500 µg/mL.

The values are drawn from ChEMBL document CHEMBL1154022, “Efficient synthesis of 3,3-diheteroaromatic oxindole analogues and their in vitro evaluation for spermicidal potential” (Bioorg Med Chem Lett, 2009).
